The results in this text go back to patent US7855205B2, “Pyrimidinyl substituted fused-pyrrolyl compounds useful in treating kinase disorders” (Janssen Pharmaceutica NV, priority 2004, dated 2010).

One assay deals with A375 malignant melanoma. Put plainly: Inhibition of cell proliferation (14C-thymidine incorporation), A375. To be noted: Homo sapiens, A-375. It counts as cell-based, human. In outline:
(§1)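 Cells (3000-8000/well) grown 24 h at 37° C, 5% CO2, then given compound in DMSO for 24 h before adding methyl 14C-thymidine (0.2 uCi/well) for a further 24 h with drug. After PBS washes, incorporation into DNA counted by scintillation.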
A general note: Dividing cells build labelled thymidine or BrdU into new DNA.

The target of the next assay is T1, CDK1:Cyclin-B (Homo sapiens, UniProt P06493).
T1 construct: purchased New England Biolabs, Beverly, Mass; 6020; host or cells: insect cells
T1 sequence (P06493 whole entry): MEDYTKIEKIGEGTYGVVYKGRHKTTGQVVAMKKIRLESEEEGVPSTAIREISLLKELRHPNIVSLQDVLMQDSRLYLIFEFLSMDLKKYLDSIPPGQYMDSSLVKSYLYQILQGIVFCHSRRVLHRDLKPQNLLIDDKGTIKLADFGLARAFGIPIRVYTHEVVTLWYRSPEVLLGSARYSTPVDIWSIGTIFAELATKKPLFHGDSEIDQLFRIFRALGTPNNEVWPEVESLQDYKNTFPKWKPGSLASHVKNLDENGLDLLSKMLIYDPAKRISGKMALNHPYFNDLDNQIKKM
T1 sequence (P14635 whole entry partner): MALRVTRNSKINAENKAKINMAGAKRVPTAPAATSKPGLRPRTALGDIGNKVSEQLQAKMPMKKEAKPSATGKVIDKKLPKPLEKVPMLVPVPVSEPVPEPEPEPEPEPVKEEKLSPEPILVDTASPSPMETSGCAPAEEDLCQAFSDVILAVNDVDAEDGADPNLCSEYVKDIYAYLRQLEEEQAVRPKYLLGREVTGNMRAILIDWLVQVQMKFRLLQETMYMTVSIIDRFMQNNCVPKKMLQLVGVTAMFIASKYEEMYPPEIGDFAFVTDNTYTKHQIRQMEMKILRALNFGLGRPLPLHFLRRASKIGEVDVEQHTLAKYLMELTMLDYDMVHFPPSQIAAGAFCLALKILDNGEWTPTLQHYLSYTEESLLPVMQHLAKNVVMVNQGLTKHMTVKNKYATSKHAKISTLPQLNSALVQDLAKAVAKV
Put plainly: CDK1 Screening Assay. To be noted: 33P-γ-ATP incorporation, 10 μM ATP. Format: biochemical. The method in brief: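 Human CDK1/cyclin B co-expressed in insect cells (30 ng/well) in 50 mM Tris pH 8, 10 mM MgCl2, with 10 μM ATP, 33P-γ-ATP and 0.025 μM biotinylated histone H1 peptide (reaction-mix levels); 1% DMSO final. 1 h at 30° C. 33P incorporation into streptavidin-captured peptide by scintillation counting.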

For a further assay, the target named is T2, Aurora-A (Mus musculus, UniProt P97477).
T2 construct: made in house; host or cells: sf9 insect cells
T2 sequence (P97477 1-395): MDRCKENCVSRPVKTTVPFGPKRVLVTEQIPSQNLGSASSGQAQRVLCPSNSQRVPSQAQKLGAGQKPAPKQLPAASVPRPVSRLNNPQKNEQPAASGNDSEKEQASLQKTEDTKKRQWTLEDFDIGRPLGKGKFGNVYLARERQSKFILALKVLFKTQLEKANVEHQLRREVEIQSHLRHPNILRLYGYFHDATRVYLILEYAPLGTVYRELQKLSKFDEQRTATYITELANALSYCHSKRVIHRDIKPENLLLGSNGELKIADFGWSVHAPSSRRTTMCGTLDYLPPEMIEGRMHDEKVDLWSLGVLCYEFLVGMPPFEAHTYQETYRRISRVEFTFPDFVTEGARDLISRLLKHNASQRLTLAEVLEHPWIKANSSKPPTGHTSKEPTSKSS
Put plainly: Aurora-A Screening Assay. It counts as biochemical, murine. To be noted: 33P-γ-ATP incorporation, 10 μM ATP.

Another assay addresses T3, VEGF-R2 (Rattus norvegicus, UniProt O08775).
T3 construct: polyhistidine (N)
Briefly: VEGF-R2 Screening Assay. To be noted: 33P-γ-ATP incorporation, 10 μM ATP. Format: biochemical. The method in brief: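 The N-terminally His-tagged rat VEGF-R2 kinase domain (aa 786-1343), diluted in 50 mM Tris-HCl pH 8.0 with 0.1% BSA, phosphorylated a biotinylated histone-H1 peptide with 33P-γ-ATP on Flashplates for 1 h at 30 °C in 1% DMSO. After washes with EDTA/PBS, immobilized 33P was counted by scintillation.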

In another assay the target is T4, RET (Homo sapiens, UniProt P07949).
T4 construct: the RET cytoplasmic domain consisting of the last 492 amino acids of the intracellular domain of the RET tyrosine kinase; histidine tag (N); made in house; host or cells: Hi5 insect cells
T4 sequence (P07949 658-1114 limits assumed): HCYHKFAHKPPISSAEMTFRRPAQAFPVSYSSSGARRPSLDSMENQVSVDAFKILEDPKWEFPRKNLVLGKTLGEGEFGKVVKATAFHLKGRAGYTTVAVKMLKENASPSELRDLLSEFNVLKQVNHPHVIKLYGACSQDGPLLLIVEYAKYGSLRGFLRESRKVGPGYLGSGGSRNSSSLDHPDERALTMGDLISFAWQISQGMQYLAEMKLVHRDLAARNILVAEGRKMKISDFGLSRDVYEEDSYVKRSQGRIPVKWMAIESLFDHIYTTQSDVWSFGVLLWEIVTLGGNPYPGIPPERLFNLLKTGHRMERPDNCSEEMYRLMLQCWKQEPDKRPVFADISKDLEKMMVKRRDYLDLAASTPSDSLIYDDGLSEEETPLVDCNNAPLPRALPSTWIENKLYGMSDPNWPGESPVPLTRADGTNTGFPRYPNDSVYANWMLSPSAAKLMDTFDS
Put plainly: RET Kinase Screening Assay. Format: biochemical. To be noted: 33P-γ-ATP incorporation, 10 μM ATP.

The test system of the next assay is HCT-116 colon carcinoma. Put plainly: Inhibition of cell proliferation (14C-thymidine incorporation), HCT-116. Format: cell-based. To be noted: Homo sapiens, HCT-116, HCT116. The method in brief:
as §1

Assay [1] concerns HeLa cervical adenocarcinoma. Briefly: Inhibition of cell proliferation (14C-thymidine incorporation), HeLa.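 Further: HeLa cells in 96-well scintillating plates, compound for 24 h then 24 h more with 14C-thymidine, counting label built into new DNA against DMSO-only control wells.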 It counts as cell-based. To be noted: Homo sapiens.

T3 sequence (O08775 786-1343): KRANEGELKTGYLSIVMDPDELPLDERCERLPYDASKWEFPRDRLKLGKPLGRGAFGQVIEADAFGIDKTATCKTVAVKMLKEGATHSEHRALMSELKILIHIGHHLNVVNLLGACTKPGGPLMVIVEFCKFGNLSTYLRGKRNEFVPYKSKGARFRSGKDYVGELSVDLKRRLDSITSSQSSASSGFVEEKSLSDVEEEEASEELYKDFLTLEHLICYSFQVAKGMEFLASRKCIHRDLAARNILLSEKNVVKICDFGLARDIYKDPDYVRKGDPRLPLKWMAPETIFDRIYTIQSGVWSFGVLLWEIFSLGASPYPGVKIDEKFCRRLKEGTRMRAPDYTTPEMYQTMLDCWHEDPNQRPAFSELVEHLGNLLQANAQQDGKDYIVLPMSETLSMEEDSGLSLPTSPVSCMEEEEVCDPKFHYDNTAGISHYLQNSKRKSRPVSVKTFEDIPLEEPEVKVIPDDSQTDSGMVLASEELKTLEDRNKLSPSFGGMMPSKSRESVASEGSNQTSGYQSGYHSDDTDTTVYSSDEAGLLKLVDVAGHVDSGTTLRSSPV

With `COc1ccc(Nc2nccc(-c3c[nH]c4ncccc34)n2)cc1` [Cpd 5, (4-Methoxy-phenyl)-[4-(1H-pyrrolo[2,3-b]pyridin-3-yl)-pyrimidin-2-yl]-amine], the IC50 (usually the concentration at which inhibition is half-maximal) in the assay on A375 malignant melanoma amounted to 0.05 µM; against CDK1:Cyclin-B, 0.011 µM; on Aurora-A, 0.134 µM; at VEGF-R2 it was 0.238 µM; against RET, 1.14 µM; in the assay with HCT-116 colon carcinoma, 0.034 µM. Moreover, in assay [1], the IC50 came out at 0.059 µM.

Turning to `COc1cccc(Nc2nccc(-c3c[nH]c4ncccc34)n2)c1` [Cpd 6, (3-Methoxy-phenyl)-[4-(1H-pyrrolo[2,3-b]pyridin-3-yl)-pyrimidin-2-yl]-amine], the IC50 was 0.95 µM in the assay on A375 malignant melanoma; 0.119 µM against CDK1:Cyclin-B; 0.1 µM on Aurora-A; 0.14 µM at VEGF-R2; approximately 1 µM at RET; 0.72 µM in the assay on HCT-116 colon carcinoma. In assay [1], the IC50 stood at 1.46 µM.

`COc1ccccc1Nc1nccc(-c2c[nH]c3ncccc23)n1` [Cpd 7, (2-Methoxy-phenyl)-[4-(1H-pyrrolo[2,3-b]pyridin-3-yl)-pyrimidin-2-yl]-amine]: the IC50 in the assay on A375 malignant melanoma is 0.35 µM; against CDK1:Cyclin-B it was 0.044 µM; against Aurora-A, 0.497 µM; against VEGF-R2, 0.82 µM; at RET, more than 10 µM; in the assay with HCT-116 colon carcinoma, 0.29 µM. For the same molecule, half-maximal inhibition in assay [1] (IC50) was put at 0.35 µM.

In the case of `Cc1ccc(Nc2nccc(-c3c[nH]c4ncccc34)n2)cc1` [Cpd 10, [4-(1H-Pyrrolo[2,3-b]pyridin-3-yl)-pyrimidin-2-yl]-p-tolyl-amine], the IC50 with A375 malignant melanoma was 0.25 µM; on CDK1:Cyclin-B, 0.04 µM; on Aurora-A, 0.29 µM; on VEGF-R2, 0.2 µM; at RET, approximately 10 µM; in the assay with HCT-116 colon carcinoma it was 0.23 µM. This molecule also returned an IC50 in assay [1] of 0.22 µM.

Consider `Clc1ccc(Nc2nccc(-c3c[nH]c4ncccc34)n2)cc1` [Cpd 11, (4-Chloro-phenyl)-[4-(1-H-pyrrolo[2,3-b]pyridin-3-yl)-pyrimidin-2-yl]-amine], for which the IC50 was 0.97 µM in the assay on A375 malignant melanoma; 0.0696 µM at CDK1:Cyclin-B; approximately 1 µM on Aurora-A; approximately 1 µM against VEGF-R2; more than 10 µM on RET; 0.56 µM in the assay with HCT-116 colon carcinoma. In addition, the IC50 in assay [1] amounted to 1.01 µM.

`Clc1ccccc1Nc1nccc(-c2c[nH]c3ncccc23)n1` [Cpd 12, (2-Chloro-phenyl)-[4-(1H-pyrrolo[2,3-b]pyridin-3-yl)-pyrimidin-2-yl]-amine]: the IC50 in the assay with A375 malignant melanoma is 0.1 µM; against CDK1:Cyclin-B, 0.0092 µM; on Aurora-A, 0.287 µM; at VEGF-R2, 0.878 µM; at RET, more than 10 µM; in the assay with HCT-116 colon carcinoma, 0.16 µM. This molecule also came in with an IC50 in assay [1] of 0.14 µM.

As to `Cc1cc(CCN2CCCC2)ccc1Nc1nccc(-c2c[nH]c3ncccc23)n1` [Cpd 48], the IC50 amounted to 0.00255 µM in the assay with A375 malignant melanoma; 0.86 µM on Aurora-A; 0.875 µM on VEGF-R2; 3.52 µM against RET; 0.00301 µM in the assay on HCT-116 colon carcinoma; 0.00255 µM in assay [1].

Turning to `c1cnc2[nH]cc(-c3ccnc(NC4CCOCC4)n3)c2c1` [Cpd 60, (Tetrahydropyran-4-yl)-[4-(1H-pyrrolo[2,3-b]pyridin-3-yl)-pyrimidin-2-yl]-amine], the IC50 in the assay with A375 malignant melanoma was found to be 0.0417 µM; against CDK1:Cyclin-B, 0.0373 µM; against Aurora-A it was 1.51 µM; against VEGF-R2, 2.46 µM; in the assay with HCT-116 colon carcinoma it was 0.0175 µM; in assay [1], 0.0411 µM.

For `CN1CCC(Nc2nccc(-c3c[nH]c4ncccc34)n2)CC1` [Cpd 61, (1-Methylpiperidin-4-yl)-[4-(1H-pyrrolo[2,3-b]pyridin-3-yl)-pyrimidin-2-yl]-amine], the IC50 with A375 malignant melanoma was 0.0214 µM; on CDK1:Cyclin-B, 0.129 µM; against Aurora-A it was 2.25 µM; at VEGF-R2, 10 µM; in the assay on HCT-116 colon carcinoma, 0.0153 µM; in assay [1], 0.026 µM.

Turning to `NC1CCN(c2nccc(-c3c[nH]c4ncccc34)n2)CC1` [Cpd 62, 1-[4-(1H-pyrrolo[2,3-b]pyridin-3-yl)-pyrimidin-2-yl]-piperidin-4-ylamine], the IC50 worked out at 0.622 µM in the assay with A375 malignant melanoma; 0.5 µM against CDK1:Cyclin-B; 0.762 µM on Aurora-A; 2.67 µM against VEGF-R2; 0.525 µM in the assay on HCT-116 colon carcinoma; 1.08 µM in assay [1].

On to `CC(=O)NC1CCN(c2nccc(-c3c[nH]c4ncccc34)n2)CC1` [Cpd 63, N-{1-[4-(1H-pyrrolo[2,3-b]pyridin-3-yl)-pyrimidin-2-yl]-piperidin-4-yl}acetamide], for which the IC50 with A375 malignant melanoma turned out to be 16.4 µM; against CDK1:Cyclin-B it was 2.11 µM; at Aurora-A, 4.19 µM; against VEGF-R2, 10 µM; in the assay on HCT-116 colon carcinoma it was 40 µM; in assay [1] it was 34.7 µM.

Take `CC(=O)N1CCC(Nc2nccc(-c3c[nH]c4ncccc34)n2)CC1` [Cpd 64, 1-{4-[4-(1H-pyrrolo[2,3-b]pyridin-3-yl)pyrimidin-2-ylamino]piperidin-1-yl}ethanone]: the IC50 turned out to be 0.155 µM in the assay on A375 malignant melanoma; 0.0498 µM against CDK1:Cyclin-B; 1.68 µM at Aurora-A; 10 µM at VEGF-R2; 0.0689 µM with HCT-116 colon carcinoma; 0.136 µM in assay [1].

With `CS(=O)(=O)n1cc(-c2ccnc(NC3CCCCC3)n2)c2cccnc21` [Cpd 67, Cyclohexyl-[4-(1-methanesulfonyl-1H-pyrrolo[2,3-b]pyridin-3-yl)pyrimidin-2-yl]-amine], the IC50 in the assay on A375 malignant melanoma is 0.504 µM; against CDK1:Cyclin-B, 0.128 µM; against Aurora-A, 2.36 µM; against VEGF-R2, 1 µM; with HCT-116 colon carcinoma, 0.298 µM; in assay [1], 0.393 µM.

Turning to `CC(=O)n1cc(-c2ccnc(NC3CCCCC3)n2)c2cccnc21` [Cpd 68, Cyclohexyl-[4-(1-acetyl-1H-pyrrolo[2,3-b]pyridin-3-yl)pyrimidin-2-yl]-amine], the IC50 came out at 0.0317 µM in the assay on A375 malignant melanoma; 0.0308 µM at CDK1:Cyclin-B; 0.32 µM at Aurora-A; 1 µM against VEGF-R2; 0.0129 µM in the assay on HCT-116 colon carcinoma; 0.023 µM in assay [1].

With `OCCn1cc(-c2ccnc(N[C@H]3CC[C@H](O)CC3)n2)c2cccnc21` [Cpd 72, trans-4-{4-[1-(2-Hydroxyethyl)-1H-pyrrolo[2,3-b]pyridin-3-yl]-pyrimidin-2-ylamino}-cyclohexanol], the IC50 in the assay on A375 malignant melanoma is 0.165 µM; at CDK1:Cyclin-B it was 0.6 µM; on Aurora-A, 6.06 µM; at VEGF-R2, 10 µM; in the assay on HCT-116 colon carcinoma, 0.077 µM; in assay [1], 0.144 µM.

On to `OCC[C@H]1CC[C@H](Nc2nccc(-c3c[nH]c4ncccc34)n2)CC1` [Cpd 77, trans-2-{4-[4-(1H-pyrrolo[2,3-b]pyridin-3-yl]-pyrimidin-2-ylamino]-cyclohexyl}-ethanol], for which the IC50 in the assay on A375 malignant melanoma stood at 0.00616 µM; at CDK1:Cyclin-B, 0.0028 µM; against Aurora-A, 0.374 µM; against VEGF-R2, 3.57 µM; in the assay with HCT-116 colon carcinoma, 0.00762 µM; in assay [1] it was 0.00598 µM.

Turning to `CNCC[C@H]1CC[C@H](Nc2nccc(-c3c[nH]c4ncccc34)n2)CC1` [Cpd 78, trans-[4-(2-Methylaminoethyl)-cyclohexyl]-[4-(1H-pyrrolo[2,3-b]pyridin-3-yl)-pyrimidin-2-yl]-amine], the IC50 in the assay with A375 malignant melanoma was 0.00225 µM; at CDK1:Cyclin-B it was 0.00426 µM; at Aurora-A, 1.01 µM; at VEGF-R2, 6.71 µM; with HCT-116 colon carcinoma, 0.00313 µM; in assay [1], 0.00374 µM.
